In one assay the test system is TS/A tumors. Briefly: Growth of TS/A tumors implanted s.c. into mice. Type of assay: in vivo. To be noted: after 13 days, s.c. every day, Tam 56 mg/kg or DDA 20 mg/kg alone. The procedure: FIG. 2. OCDO is a tumor promoter in vitro and in vivo and its inhibition contributes to the anti-tumor effects of Tam and DDA. (A, B) Histograms representing the effect of OCDO or 17β-estrogen (E2) on MCF7 (A) and TS/A (B) cell proliferation after 24 h treatment using a colorimetric immunoassay measuring BrDU incorporation in DNA (C, D) Histogram representing the effect of OCDO on MCF7 (C) and TS/A (D) cell invasion. Data are the mean of three separate experiments (±s.e.m), *P<0.05, **P<0.01, ***P<0.001 (Student's t-test). (E, F) Mice were implanted s.c. with MCF7 (E) or TS/A (F) cells and animals (8 per group) were treated s.c. every day starting on the day of implantation with either the solvent vehicle or OCDO (16 μg/kg for MCF7 or 50 μg/kg for TS/A). Animals were monitored for tumour growth twice a week. The data are representative of three independent experiments. The mean tumor volume±s.e.m is shown, *P<0.05, **P<0.01, ***P<0.001 (analysis of variance (ANOVA), Dunnett's post test). (G) Mean (±s.e.m) of Ki67 positive cell number determined from IHC staining of MCF7 tumor sections from (E), n=8, *P<0.05 (Student's t-test) using HistoQuant, Pannoramic Viewer (3DHistech). (H) Representative Ki67 staining of TS/A tumor sections from (F) showing increased staining in OCDO-treated tumor compared with control-treated tumor. (I, J, K). Murine E0771(I), or human MDA-MB231 (J) or MDA-MB468 (K) cells implanted s.c. into mice (8 per group) and animals were treated s.c. with either the solvent vehicle or OCDO (16 μg/kg for MDA-MB-231 and MDA-MB-468 or 50 μg/kg for E0771). The data are representative of two independent experiments. Statistical analysis was performed as in E and F. (L) Mice were implanted s.c. with TS/A cells and animals (8 per group) were treated s.c. every day with either the solvent vehicle, OCDO (50 μg/kg), Tam (56 mg/kg), DDA (20 mg/kg) or the combination of Tam (56 mg/kg) +OCDO (50 μg/kg) or DDA (20 mg/kg)+OCDO (50 μg/kg). The data are representative of three independent experiments. Statistical analysis was performed as in E and F.
Exponentially growing MCF7, ShMCF7, E0771, MDA-MB231, MDA-MB468 and TS/A cells were collected, washed twice in PBS and resuspended in PBS. TS/A and E9771 tumours were prepared by subcutaneous transplantation of 35×10^3 cells or 3×10^5 cells respectively in 100 μl PBS into the flank of BALB/c or C57B16 mice. For other tumors, 5 to 10×10^6 cells in 200 μl PBS/matrigel (1/1) were injected into the flank of NMRI nude mice. Animals were treated as indicated in the legends. Animals were examined daily, and body weights were measured twice per week. In all the experiments, the tumor volume was determined by direct measurement with a caliper and was calculated using the formula (width^2×length)/2. Tumors were either frozen in liquid nitrogen or fixed in 10% neutral-buffered formalin and embedded in paraffin for immunohistochemical analysis. Paraffin sections were stained with haematoxylin and eosin for histomorphological analyses. Immunohistochemical staining was done on paraffin-embedded tissue sections, using a specific Ki67 antibody (Dako).
We then assayed the anti-growth effect of Tam or DDA against TS/A tumors in the absence and presence of OCDO. As above, TS/A tumors implanted into immunocompetent mice were treated s.c. every day either with either the solvent vehicle (control), OCDO (50 μg/kg), Tam (56 mg/kg), DDA (20 mg/kg) or the combination of Tam (56 mg/kg)+OCDO (50 μg/kg) or DDA (20 mg/kg) +OCDO (50 μg/kg).

A further assay concerns shHSD2 MCF7 cells. Briefly: Proliferation of shHSD2 MCF7 cells (BrDU). In kind it is cell-based, human. To be noted: sh11HSD2 MCF7 cells, 24 h; OCDO 5 μM; cortisone increasing concentrations. The procedure: FIG. 7. Knock-down of 11βHSD2 decreases cell proliferation, invasion and survival in MCF7 cells as well as tumor growth and OCDO reverses these effects. shC or shHSD2 MCF7 cells were analyzed as followed: (A) The proliferation of sh-C or shHSD2 cells treated or not with OCDO 5 μM 24 h was measured using quantification of DNA BrDU incorporation as described in FIG. 2A. (B) The proliferation of sh-C or shHSD2 cells treated or not with increasing concentration of cortisone for 24 h was measured as in (A). (C) The invasiveness of sh-C or shHSD2 cells treated or not with OCDO 5 μM for 72 h was assayed using matrigel-coated filters. (D) the formation of colony by sh-C or shHSD2 cells treated or not with OCDO 1 μM was quantified as described in FIG. 6F. […] Animals were monitored for tumor growth twice a week. […] (F) Mean (±s.e.m) of Ki67 positive cell number determined from IHC staining of shC or shHSD2 MCF7 tumor sections from (E), n=8, *P<0.05 (Student's t-test) using HistoQuant, Pannoramic Viewer (3DHistech).
MCF7 or HEK293T cells (5×10^6 cells) were transfected with 5 μg of the indicated plasmid using the NEON Transfection System and according to the manufacturer's recommendations. […] Several clones were analyzed by immunoblot analysis and real time RT-qPCR for the knock down of the expression of the protein of interest. […]

Consider `CC(C)CCCC(C)[C@H]1CCC2C3C[C@@H](NCCc4cnc[nH]4)[C@@]4(O)C[C@@H](O)CC[C@]4(C)C3CC[C@@]21C` (stereo partly drawn) [DDA, 5-hydroxy-6-[2-(1H-imidazol-4-yl)ethylamino]cholestan-3-ol, reference compound], for which, in the assay on TS/A tumors, the “inhibition of TS/A tumor growth compared with the control group” value stood at 33%.
Turning to `CC/C(=C(\c1ccccc1)c1ccc(OCCN(C)C)cc1)c1ccccc1` [Tam, (Z)-2-[4-(1,2-diphenylbut-1-enyl)phenoxy]-N,N-dimethylethanamine, reference compound], the “inhibition of TS/A tumor growth compared with the control group” value with TS/A tumors was 31%.
In the case of `C[C@]12CCC(=O)C=C1CC[C@@H]1[C@@H]2C(=O)C[C@@]2(C)[C@H]1CC[C@]2(O)C(=O)CO` [cortisone, reference compound], the “effect on the inhibition of cell proliferation induced by 11βHSD2 knock-down” value in the assay on shHSD2 MCF7 cells was “did not”.

The values above are taken from patent publication US20170234881A1, “METHODS OF DIAGNOSING AND TREATING CANCER” (INSERM ( INSTITUT NATIONAL DE LA SANTÉ ET DE LA RECHERCHE …, priority 2014, published 2017).
